Measured values published in publication PMC7932080, “In vitro study of Hesperetin and Hesperidin as inhibitors of zika and chikungunya virus proteases” (PLoS ONE, 2021).
Several values for one entry are separate records, joined by “and”; a condition that tells them apart may be missing. Identical values can stand only once. Like-named read-outs stand apart in the source and are kept apart here.

How the values were obtained:
CHIKV [1] = settings: cited from earlier work
[2] = cited from earlier work
ZIKV NS2B/NS3^pro [3] = molecular target: T1, ZIKV NS2B/NS3^pro (Zika virus, UniProt A0A024B7W1); test: Intrinsic Trp fluorescence titration (KD); settings: Trp fluorescence quenching, ± STD
ZIKV NS2B/NS3^pro [4] = molecular target: T1, ZIKV NS2B/NS3^pro; test: ZIKV NS2B/NS3^pro inhibition assay, fluorogenic substrate Pyr-Arg-Thr-Lys-Arg-AMC
Vero cells = test: Cell viability through MTT assay
ZIKV = test: Plaque reduction antiviral assay in Vero cells; settings: ~50 PFU, two inhibitor concentrations
CHIKV [5] = test: Plaque reduction antiviral assay in Vero cells; settings: ~50 PFU, two inhibitor concentrations
trypsin = tested on: trypsin; parameters: method as in PMID 23124490; settings: cited from earlier work
[6] = dose of administration 20 mg/kg, cited from earlier work
CHIKV nsP2^pro [7] = molecular target: T2, CHIKV nsP2^pro (Chikungunya virus, UniProt Q8JUX6); test: Intrinsic Trp fluorescence titration (KD); settings: Trp fluorescence quenching, ± STD
CHIKV [8] = settings: cited from earlier work; remark: listed apart in the source
CHIKV nsP2^pro [9] = molecular target: T2, CHIKV nsP2^pro; test: CHIKV nsP2^pro FRET-based inhibition assay; format: biochemical; settings: for % activity, mean / % inhibition, mean: mean n=3
[10] = read-out: Inhibition of protease activity, preliminary inhibition test, compound 20 µM

T1 sequence (A0A024B7W1 1425-1464): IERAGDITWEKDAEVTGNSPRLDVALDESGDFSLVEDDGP
T1 sequence (A0A024B7W1 1503-1680): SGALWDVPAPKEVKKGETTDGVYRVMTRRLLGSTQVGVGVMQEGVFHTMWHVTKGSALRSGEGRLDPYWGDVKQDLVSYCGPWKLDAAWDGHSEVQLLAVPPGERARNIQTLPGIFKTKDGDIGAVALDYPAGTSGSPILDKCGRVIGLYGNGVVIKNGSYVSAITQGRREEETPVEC
T2 sequence (Q8JUX6 1001-1333): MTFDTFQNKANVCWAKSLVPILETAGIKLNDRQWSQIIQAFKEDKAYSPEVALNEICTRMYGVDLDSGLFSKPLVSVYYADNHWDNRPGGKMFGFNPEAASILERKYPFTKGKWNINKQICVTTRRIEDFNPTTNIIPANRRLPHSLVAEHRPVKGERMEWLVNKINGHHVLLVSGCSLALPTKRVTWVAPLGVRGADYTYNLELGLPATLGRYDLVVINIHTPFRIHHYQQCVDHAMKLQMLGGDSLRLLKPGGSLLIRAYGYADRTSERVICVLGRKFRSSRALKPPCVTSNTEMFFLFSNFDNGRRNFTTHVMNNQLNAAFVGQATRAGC

## COc1ccc(C2CC(=O)c3c(O)cc(O)cc3O2)cc1O (centres unmarked) [HST, 3’,5,7-trihydroxy-4’-methoxyflavanone]
CHIKV [1]
  Intracellular replication of CHIKV: inhibit
[2]
  Potential maximal tolerated dose: Citrus flavonoids are extremely safe and without side effects also up to high concentrations of 100 mg/kg to 500 mg/kg.
ZIKV NS2B/NS3^pro [3]
  Kd: 17.8 ± 2.9 µM
ZIKV NS2B/NS3^pro [4]; 3 nM protease, 20 µM substrate, mean ± SD, n=3
  IC50: < 13000 nM
ZIKV NS2B/NS3^pro [4]; (1.4*pIC50)/N
  LE (ligand efficiency): 0.31
ZIKV NS2B/NS3^pro [4]; HST 1 µM, replicates A-C
  % activity: 97%
  % inhibition: 3%
  activity at 1 µM: 94%
  inhibition at 1 µM: 6%
ZIKV NS2B/NS3^pro [4]; HST 5 µM, replicates A-C
  % activity: 85% and 86%
  % inhibition: 15% and 14%
  activity at 5 µM: 88%
  inhibition at 5 µM: 12%
ZIKV NS2B/NS3^pro [4]; HST 10 µM, replicates A-C
  % activity: 80%
  % inhibition: 20%
  activity at 10 µM: 78%
  inhibition at 10 µM: 22%
ZIKV NS2B/NS3^pro [4]; HST 20 µM, replicates A-C
  % activity: 59% and 63%
  % inhibition: 41% and 37%
  activity at 20 µM: 60%
  inhibition at 20 µM: 40%
ZIKV NS2B/NS3^pro [4]; HST 30 µM, mean n=3
  Activity, mean: 43.6667%
ZIKV NS2B/NS3^pro [4]; HST 30 µM, replicates A-C
  % activity: 45%
  % inhibition: 55%
  activity at 30 µM: 43%
  inhibition at 30 µM: 57%
ZIKV NS2B/NS3^pro [4]; HST 40 µM, mean n=3
  Activity, mean: 35.6667%
ZIKV NS2B/NS3^pro [4]; HST 40 µM, replicates A-C
  % activity: 36%
  % inhibition: 64%
  activity at 40 µM: 35%
  inhibition at 40 µM: 65%
ZIKV NS2B/NS3^pro [4]; HST 50 µM, mean n=3
  Activity, mean: 24.3333%
ZIKV NS2B/NS3^pro [4]; HST 50 µM, replicates A-C
  % activity: 26% and 24%
  % inhibition: 74% and 76%
  activity at 50 µM: 23%
  inhibition at 50 µM: 77%
ZIKV NS2B/NS3^pro [4]; HST 60 µM, mean n=3
  Activity, mean: 15.3333%
ZIKV NS2B/NS3^pro [4]; HST 60 µM, replicates A-C
  % activity: 14% and 17%
  % inhibition: 86% and 83%
  activity at 60 µM: 15%
  inhibition at 60 µM: 85%
ZIKV NS2B/NS3^pro [4]; HST 70 µM, mean n=3
  Activity, mean: 10.6667%
ZIKV NS2B/NS3^pro [4]; HST 70 µM, replicates A-C
  % activity: 11%
  % inhibition: 89%
  activity at 70 µM: 10%
  inhibition at 70 µM: 90%
ZIKV NS2B/NS3^pro [4]; HST 80 µM, mean n=3
  Activity, mean: 6.333%
ZIKV NS2B/NS3^pro [4]; HST 80 µM, replicates A-C
  % activity: 6% and 8%
  % inhibition: 94% and 92%
  activity at 80 µM: 5%
  inhibition at 80 µM: 95%
ZIKV NS2B/NS3^pro [4]; HST 90 µM, mean n=3
  Activity, mean: 2%
ZIKV NS2B/NS3^pro [4]; HST 90 µM, replicates A-C
  % activity: 2% and 1% and 3%
  % inhibition: 99% and 97%
  inhibition at 90 µM: 98%
ZIKV NS2B/NS3^pro [4]; HST 100 µM, mean n=3
  Activity, mean: 0.7667%
ZIKV NS2B/NS3^pro [4]; HST 100 µM, replicates A-C
  % activity: 0.5% and 1%
  % inhibition: 99.5% and 99%
  activity at 100 µM: 0.8%
  inhibition at 100 µM: 99.2%
ZIKV NS2B/NS3^pro [4]; HST 1 (µM), mean n=3
  Activity, mean: 95%
ZIKV NS2B/NS3^pro [4]; HST 5 (µM), mean n=3
  Activity, mean: 86.3333%
ZIKV NS2B/NS3^pro [4]; HST 10 (µM), mean n=3
  Activity, mean: 78.6667%
ZIKV NS2B/NS3^pro [4]; HST 20 (µM), mean n=3
  Activity, mean: 60.6667%
ZIKV NS2B/NS3^pro [4]; HST 120 (µM), mean n=3
  Activity, mean: 0.1667%
  Inhibition, mean: 99.8333%
ZIKV NS2B/NS3^pro [4]; HST 120 (µM), replicates A-C
  % activity: 0.1%
  inhibition at 120 µM: 99.9%
ZIKV NS2B/NS3^pro [4]; HST 140 (µM), mean n=3
  Activity, mean: 0%
ZIKV NS2B/NS3^pro [4]; HST 140 (µM), replicates A-C
  inhibition at 140 µM: 100%
ZIKV NS2B/NS3^pro [4]; IC50, single replicate, single replicates A, B, C
  IC50: 14.3 µM (2×) and 12.6 µM (2×) and 11 µM (2×)
ZIKV NS2B/NS3^pro [4]; Lineweaver-Burk plot
  Inhibition mode: noncompetitive
ZIKV NS2B/NS3^pro [4]; Log conc nM (IC50 determination triplicate), single replicates A, B, C
  IC50: 14300 nM and 12600 nM and 11000 nM
ZIKV NS2B/NS3^pro [4]; pIC50, from IC50 by online tool
  IC50: 12600 nM
ZIKV NS2B/NS3^pro [4]; read-out: % activity, HST 140 (µM), replicates A-C
  remaining activity at 140 µM: 0%
ZIKV NS2B/NS3^pro [4]; [10]
  inhibition at 20 µM: ~40%
ZIKV NS2B/NS3^pro [4]; read-out: Inhibition, mean, HST 1 µM, mean n=3
  inhibition at 1 µM: 5%
ZIKV NS2B/NS3^pro [4]; read-out: Inhibition, mean, HST 5 µM, mean n=3
  inhibition at 5 µM: 13.7%
ZIKV NS2B/NS3^pro [4]; read-out: Inhibition, mean, HST 10 µM, mean n=3
  inhibition at 10 µM: 21.3%
ZIKV NS2B/NS3^pro [4]; read-out: Inhibition, mean, HST 20 µM, mean n=3
  inhibition at 20 µM: 39.3%
ZIKV NS2B/NS3^pro [4]; read-out: Inhibition, mean, HST 30 µM, mean n=3
  inhibition at 30 µM: 56.3%
ZIKV NS2B/NS3^pro [4]; read-out: Inhibition, mean, HST 40 µM, mean n=3
  inhibition at 40 µM: 64.3%
ZIKV NS2B/NS3^pro [4]; read-out: Inhibition, mean, HST 50 µM, mean n=3
  inhibition at 50 µM: 75.7%
ZIKV NS2B/NS3^pro [4]; read-out: Inhibition, mean, HST 60 µM, mean n=3
  inhibition at 60 µM: 84.7%
ZIKV NS2B/NS3^pro [4]; read-out: Inhibition, mean, HST 70 µM, mean n=3
  inhibition at 70 µM: 89.3%
ZIKV NS2B/NS3^pro [4]; read-out: Inhibition, mean, HST 80 µM, mean n=3
  inhibition at 80 µM: 93.7%
ZIKV NS2B/NS3^pro [4]; read-out: Inhibition, mean, HST 90 µM, mean n=3
  inhibition at 90 µM: 98%
ZIKV NS2B/NS3^pro [4]; read-out: Inhibition, mean, HST 100 µM, mean n=3
  inhibition at 100 µM: 99.2%
Vero cells; 2.3 to 300 µM, 2 days
  Cytotoxic effect at the calculated IC50 concentrations: no cytotoxic effect
Vero cells; 48 h, concentrations up to 300 µM
  50% cytotoxic concentration: > 300 µM
ZIKV
  Antiviral activity, plaque reduction: no antiviral activities
CHIKV [5]
  Antiviral activity, plaque reduction: no antiviral activities
trypsin
  IC50: 104 µM
[6]
  AUC inf.: 3.49 ± 0.37 µM·h
  AUC last: 3.01 ± 0.29 µM·h
  Cl systemic clearance: 318.2 ± 33.2 mL/min/kg
  MRT mean residence time: 3.60 ± 0.21 h
  T1/2 elimination half-life: 5.32 ± 0.62 h
  Vd volume of distribution: 145.60 ± 8.84 L/kg
[6]; read-out: Co initial concentration
  C0: 7.35 ± 1.71 µM
CHIKV nsP2^pro [7]
  Kd: 31.6 ± 2.5 µM
CHIKV [8]
  Antiviral activity in anti-entry, anti-adsorption, direct virucidal assays: no antiviral activity
CHIKV nsP2^pro [9]; (1.4*pIC50)/N
  LE (ligand efficiency): 0.36
CHIKV nsP2^pro [9]; HST 1 µM, replicates A-C
  inhibition at 1 µM: 31%
CHIKV nsP2^pro [9]; HST 5 µM, replicates A-C
  inhibition at 5 µM: 67%
CHIKV nsP2^pro [9]; HST 10 µM, replicates A-C
  inhibition at 10 µM: 78%
CHIKV nsP2^pro [9]; HST 20 µM, replicates A-C
  inhibition at 20 µM: 93%
CHIKV nsP2^pro [9]; HST 30 µM, replicates A-C
  inhibition at 30 µM: 100%
CHIKV nsP2^pro [9]; HST 0.25 (µM)
  % activity, mean: 91.3333%
  % inhibition, mean: 8.667%
CHIKV nsP2^pro [9]; HST 0.5 (µM)
  % activity, mean: 80.6667%
  % inhibition, mean: 19.3333%
CHIKV nsP2^pro [9]; HST 0.5 (µM), replicates A-C
  inhibition at 0.5 µM: 17%
CHIKV nsP2^pro [9]; HST 1 (µM)
  % activity, mean: 65.3333%
  % inhibition, mean: 34.6667%
CHIKV nsP2^pro [9]; HST 2.5 (µM), replicates A-C
  inhibition at 2.5 µM: 51%
CHIKV nsP2^pro [9]; HST 5 (µM)
  % activity, mean: 33.3333%
  % inhibition, mean: 66.6667%
CHIKV nsP2^pro [9]; HST 10 (µM)
  % activity, mean: 20.3333%
  % inhibition, mean: 79.6667%
CHIKV nsP2^pro [9]; HST 15 (µM)
  % activity, mean: 11.6667%
  % inhibition, mean: 88.3333%
CHIKV nsP2^pro [9]; HST 15 (µM), replicates A-C
  inhibition at 15 µM: 86%
CHIKV nsP2^pro [9]; HST 20 (µM)
  % activity, mean: 5.333%
  % inhibition, mean: 94.6667%
CHIKV nsP2^pro [9]; HST 25 (µM)
  % activity, mean: 2.333%
  % inhibition, mean: 97.6667%
CHIKV nsP2^pro [9]; HST 25 (µM), replicates A-C
  inhibition at 25 µM: 96%
CHIKV nsP2^pro [9]; IC50, 1 µM protease, 3 µM substrate, mean ± SD, n=3
  IC50: 2500 ± 400 nM
CHIKV nsP2^pro [9]; IC50, single replicate, HST, single replicates A, B, C
  IC50: 2.95 µM (2×) and 2.4 µM (2×) and 2.09 µM (2×)
CHIKV nsP2^pro [9]; IC50 mean, HST, mean of triplicate
  IC50: 2480 nM
CHIKV nsP2^pro [9]; Lineweaver-Burk plot
  Inhibition mode: noncompetitive
CHIKV nsP2^pro [9]; Log conc nM (IC50 determination triplicate), HST, single replicates A, B, C
  IC50: 2950 nM and 2400 nM and 2090 nM
CHIKV nsP2^pro [9]; read-out: % activity, HST 0.25 (µM), replicates A-C
  remaining activity at 0.25 µM: 95%
CHIKV nsP2^pro [9]; read-out: % activity, HST 0.5 (µM), replicates A-C
  remaining activity at 0.5 µM: 83%
CHIKV nsP2^pro [9]; read-out: % activity, HST 1 (µM), replicates A-C
  remaining activity at 1 µM: 69%
CHIKV nsP2^pro [9]; read-out: % activity, HST 2.5 (µM), replicates A-C
  remaining activity at 2.5 µM: 49%
CHIKV nsP2^pro [9]; read-out: % activity, HST 5 (µM), replicates A-C
  remaining activity at 5 µM: 33%
CHIKV nsP2^pro [9]; read-out: % activity, HST 10 (µM), replicates A-C
  remaining activity at 10 µM: 22%
CHIKV nsP2^pro [9]; read-out: % activity, HST 15 (µM), replicates A-C
  remaining activity at 15 µM: 14%
CHIKV nsP2^pro [9]; read-out: % activity, HST 20 (µM), replicates A-C
  remaining activity at 20 µM: 7%
CHIKV nsP2^pro [9]; read-out: % activity, HST 30 (µM), replicates A-C
  remaining activity at 30 µM: 0%
CHIKV nsP2^pro [9]; [10]
  inhibition at 20 µM: ~90%
